Assay results: patent US20150309031A2, “COMPOSITIONS AND METHODS FOR PROGNOSIS AND TREATMENT OF CANCER” (NOVAZOI THERANOSTICS, priority 2013, published 2015)

What was measured:
[1] = molecular target: T1, KIFC1/microtubule (MT) binary complex (Homo sapiens, UniProt Q9BW19); conditions: read-out: Ki (ATP-competitive, MT-noncompetitive inhibition of MT-stimulated KIFC1 enzymatic activity); cited from earlier work
T1 sequence (Q9BW19 1-673): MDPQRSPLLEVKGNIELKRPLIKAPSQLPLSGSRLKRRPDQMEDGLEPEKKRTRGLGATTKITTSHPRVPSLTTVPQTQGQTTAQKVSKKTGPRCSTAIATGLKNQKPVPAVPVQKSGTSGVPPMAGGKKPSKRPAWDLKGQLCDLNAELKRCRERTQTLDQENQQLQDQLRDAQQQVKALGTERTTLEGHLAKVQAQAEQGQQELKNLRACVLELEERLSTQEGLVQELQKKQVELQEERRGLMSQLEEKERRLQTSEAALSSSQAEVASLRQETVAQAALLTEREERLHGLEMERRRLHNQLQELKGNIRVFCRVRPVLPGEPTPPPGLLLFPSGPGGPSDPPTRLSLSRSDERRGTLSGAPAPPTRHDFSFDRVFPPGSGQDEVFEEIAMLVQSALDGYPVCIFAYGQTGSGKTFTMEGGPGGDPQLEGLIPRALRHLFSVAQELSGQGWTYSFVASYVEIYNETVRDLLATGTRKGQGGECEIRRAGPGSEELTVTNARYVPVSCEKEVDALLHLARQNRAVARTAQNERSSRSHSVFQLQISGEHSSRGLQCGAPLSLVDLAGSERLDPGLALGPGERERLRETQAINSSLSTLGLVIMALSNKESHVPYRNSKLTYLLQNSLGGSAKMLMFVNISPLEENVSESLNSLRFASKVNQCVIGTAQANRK

[2] = tested on: BT-549 breast cancer cells; conditions: BT-549 cells with amplified centrosomes; cited from earlier work
[3] = tested on: 231 cells; test: Mitotic arrest (MA) by flow cytometry, 231 cells; type: cell-based; conditions: 10 μM
Protocol: FIGS. 2A-2C depict mitotic arrest (MA) phenotypes observed upon treatment with putative centrosome declustering drugs. […] Declustering drugs included Nos, BN, RBN, PJ, and GF, all at 10 and 25 μM except GF, which was used at 25 and 50 μM, and cell lines included 231, PC3, and HeLa. […] In general, MA increased from 0 h to a peak near 24 h, followed by a decline in MA that coincided with increases in subG1 fractions. Results are representative of three independent experiments. […] Drugs are ranked in order of increasing peak subG1 from bottom to top along the y axis. […] Increased levels of both cyclins compared with controls (0 h) were detected across cell lines with variable expression patterns depending on the drug and cell line. To evaluate apoptosis, cleaved caspase-3 (C. Caspase-3) was immunoblotted and eventual increases over controls were universally detected, typically by 24 h.
To evaluate the impact of putative declustering drugs on cell cycle progression and hypodiploidy (<2N DNA content, which may indicate apoptotic cells), MDA-MB-231 (231), PC3, and HeLa cells were treated with different concentrations of declustering drugs, stained with propidium iodide, labeled with anti-MPM2 antibody, and then assessed by flow cytometry at multiple time points over 48 h. […]

[4] = tested on: mammary fibrocystic (MCF10A) cells; test: subG1 (hypodiploid) fraction by flow cytometry, MCF10A cells; type: cell-based; conditions: for Peak subG1 percent over 48 h: MCF10A
[5] = tested on: HeLa cells; test: subG1 (hypodiploid) fraction by flow cytometry, HeLa cells; type: cell-based
Protocol: (§1) Trypsinized cells were resuspended in PBS at 10^6 cells/ml. Cells were then fixed by addition of ice-cold 70% ethanol. Ethanol-fixed cells were kept overnight at 4° C. before staining. Cells were pelleted and washed twice with PBS. Cell pellets were incubated for an hour at room temperature with mouse anti-MPM-2 antibody (Millipore, Mass., USA), followed by 1 h incubation with Alexa-488 anti-mouse secondary antibody (Life Technologies, NY, USA). Finally cells were washed, pelleted and resuspended in propidium iodide-containing isotonic buffer (0.1 mg/mL) and 0.5% Triton X-100. Cell cycle distribution was determined by flow cytometry using an LSR Fortessa Flow cytometer (BD Biosciences, CA, USA) and analyzed using Flowjo software (Tree Star, OR, USA). […] The duration, highest degree, and rapidity of onset of MA varied between drugs, drug concentrations, and cell lines (FIGS. 2A, 2B). In general, the maximum MA achieved was less pronounced in Nos- and PJ-treated cells (FIGS. 2A, 2B). Drug-induced onset of MA was corroborated by substantial increases in cyclin B1 levels in all cell lines (FIG. 2C). […] Instances where the subG1 fraction was elevated without cleaved caspase-3 may either represent caspase-independent cell death or the presence of hypodiploid cells whose fate is unclear.

[6] = tested on: PC3 cells; test: subG1 (hypodiploid) fraction by flow cytometry, PC3 cells; type: cell-based
Protocol: as §1

[7] = tested on: MCF10A cells; test: Centrosome amplification (CA) by microscopy, MCF10A cells; type: cell-based; conditions: interphase and mitotic cells, over 24 h
Protocol: (§2) Consequently, CA was assessed in cultures treated with different concentrations of declustering drugs for 6, 12, 18, or 24 h and untreated controls via microscopy. Centrosomes were identified by γ-tubulin and centrin-2 colocalization at discrete foci. […] The peak percent CA detected over 24 h is shown in FIG. 6 (only statistically significant (P<0.05) increases over control values are represented in the Figures). Representative confocal micrographs of CA in interphase and mitotic cells, both control and drug treated, are depicted in FIG. 7. No significant correlations between the degree of CA (FIG. 5A) and the expression levels of PLK4, Cyclin E, and Aurora A were found (FIG. 4).
(§3) To determine whether the CA-inducing activity of declustering drugs is restricted to cancer cells, two non-malignant cell lines, mammary fibrocystic (MCF10A) cells and adult human dermal fibroblasts were treated with these drugs. Neither one of RBN, GF or PJ induced CA or cell death (Table 8) in these cell lines. […] In comparison, 10 and 25 μM RBN increased peak CA over controls in interphase cells (p<0.001 and p=0.001, respectively), with the lower concentration dramatically augmenting peak CA to 56% of cells versus 15% for the higher dose (FIG. 9B). Only 10 but not 25 μM RBN increased the extent of CA in mitotic cells, and this upregulation was only slight (10%, p=0.041).

[8] = tested on: adult human dermal fibroblasts (HDF); test: subG1 (hypodiploid) fraction by flow cytometry, HDFs; type: cell-based
[9] = tested on: MDA-MB-231 (231) cells; test: subG1 (hypodiploid) fraction by flow cytometry, 231 cells; type: cell-based
Protocol: as §1

[10] = tested on: human dermal fibroblasts (HDFs); test: Centrosome amplification (CA) by microscopy, HDFs; type: cell-based; conditions: any concentration or time point assessed
Protocol: as §2, §3

Structure (SMILES)	Ki [1]	centrosome declustering [2]	mitotic arrest (in words) [3]	change of peak subG1 percent compared to controls (in words) ([4]; MCF10A cells)	Peak subG1 percent over 48 h ([4]; 10 μM)	Peak subG1 percent over 48 h ([4]; 25 μM)	Peak subG1 percent over 48 h ([5]; 10 μM)	Peak subG1 percent over 48 h ([5]; 25 μM)	maximum subG1 fraction relative to control ([5]; 25 μM)	Peak subG1 percent over 48 h ([6]; 10 μM)	Peak subG1 percent over 48 h ([6]; 25 μM)	maximum subG1 fraction relative to control ([6]; 25 μM)	change of CA over control levels (in words) [7]	Peak subG1 percent over 48 h ([8]; 10 μM)	Peak subG1 percent over 48 h ([8]; 25 μM)	Peak subG1 percent over 48 h ([9]; 10 μM)	Peak subG1 percent over 48 h ([9]; 25 μM)	maximum subG1 fraction relative to control ([9]; 25 μM)	change of CA over controls (in words) [10]
CCCc1cc(C(=O)N[C@H](Cc2ccc(-c3cccc(OC(F)(F)F)c3)nc2)C(=O)N[C@@H]2CCNC2)sc1C [AZ82]	0.043 µM	causes centrosome declustering	–	–	–	–	–	–	–	–	–	–	–	–	–	–	–	–	–
COc1ccc2c(c1OC)C(=O)O[C@@H]2[C@H]1c2c(c(Br)c3c(c2OC)OCO3)CCN1C [BN, 9-bromonoscapine]	–	–	did not cause any MA	did not cause a significant increase in peak subG1 percent compared to controls	3.5%	3.0%	42.0%	54.9%	4.4 × control	46.0%	42.8%	9.2 × control	neither concentrations of Nos or BN significantly increased CA over control levels	16.5%	20.4%	32.5%	65.2%	9.3 × control	did not significantly increase the extent of CA over controls
